# Data as given in patent US9828396B2, “Alkyne compounds for treatment of complement mediated disorders” (Achillion Pharmaceuticals, Inc., priority 2014, dated 2017).
# Target: Human factor D (Homo sapiens (Human), UniProt P00746)
# Assay: Human Factor D Assay
# Format: biochemical
# Conditions: Human factor D 80 nM, substrate Z-L-Lys-SBzl, assay of Example 12
# Protocol: Example 12. Human Factor D Assay
# Human factor D (purified from human serum, Complement Technology, Inc.) at 80 nM final concentration is incubated with test compound at various concentrations for 5 minutes at room temperature in 50 mM Tris, 1M NaCl, pH 7.5. A synthetic substrate Z-L-Lys-SBzl and DTNB (Ellman's reagent) are added to final concentrations of 100 μM each. The increase in color is recorded at OD405 nm in a microplate in kinetic mode over 30 minutes with 30 second time points in a spectrofluorimeter. IC50 values are calculated by non-linear regression from the percentage of inhibition of complement factor D activity as a function of test compound concentration.
# Sequence of Human factor D (P00746 26-253): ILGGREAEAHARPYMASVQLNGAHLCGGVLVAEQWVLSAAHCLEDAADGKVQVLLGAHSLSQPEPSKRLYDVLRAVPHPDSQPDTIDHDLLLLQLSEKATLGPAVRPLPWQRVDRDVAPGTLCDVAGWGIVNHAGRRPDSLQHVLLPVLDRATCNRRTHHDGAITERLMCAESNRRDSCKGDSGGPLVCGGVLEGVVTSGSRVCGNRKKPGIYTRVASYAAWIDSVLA
row,SMILES,IC50 [nM]
1,"CC1(C)CCCC(NC(=O)[C@@H]2C[C@@H](F)CN2C(=O)Cn2nc(C(N)=O)c3cc(C#Cc4ncccn4)ccc32)C1 (stereo partly drawn) [Compound 44, 1-(2-((2S,4R)-2-(3,3-dimethylcyclohexylcarbamoyl)-4-fluoropyrrolidin-1-yl)-2-oxoethyl)-5-(pyrimidin-2-ylethynyl)-1H-indazole-3-carboxamide]",< 1000
2,"NC(=O)c1nn(CC(=O)N2[C@@H]3C[C@@H]3C[C@H]2C(=O)Nc2cccc(-c3ccc(F)cc3Cl)c2F)c2ccc(C#Cc3ncc(F)cn3)cc12 [Compound 64, 1-(2-((1R,3S,5R)-3-(2′-chloro-2,4′-difluorobiphenyl-3-ylcarbamoyl)-2-azabicyclo[3.1.0]hexan-2-yl)-2-oxoethyl)-5-((5-fluoropyrimidin-2-yl)ethynyl)-1H-indazole-3-carboxamide]",< 1000
3,"NC(=O)c1nn(CC(=O)N2C[C@H](F)C[C@H]2C(=O)Nc2cccc(Cl)n2)c2ccc(C#Cc3cnccn3)cc12 [Compound 82, 1-(2-((2S,4R)-2-(6-chloropyridin-2-ylcarbamoyl)-4-fluoropyrrolidin-1-yl)-2-oxoethyl)-5-(pyrazin-2-ylethynyl)-1H-indazole-3-carboxamide]",< 1000
4,"NC(=O)c1nn(CC(=O)N2C[C@H](F)C[C@H]2C(=O)NCc2cccc(Cl)c2F)c2ccc(C#Cc3cccc(N)n3)cc12 [Compound 36, 5-((6-aminopyridin-2-yl)ethynyl)-1-(2-((2S,4R)-2-(3-chloro-2-fluorobenzylcarbamoyl)-4-fluoropyrrolidin-1-yl)-2-oxoethyl)-1H-indazole-3-carboxamide]",< 1000
5,"NC(=O)c1nn(CC(=O)N2C[C@H](F)C[C@H]2C(=O)Nc2cccc(-c3ccccc3Cl)c2F)c2ccc(C#Cc3ncc(F)cn3)cc12 [Compound 55, 1-(2-((2S,4R)-2-(2′-chloro-2-fluorobiphenyl-3-ylcarbamoyl)-4-fluoropyrrolidin-1-yl)-2-oxoethyl)-5-((5-fluoropyrimidin-2-yl)ethynyl)-1H-indazole-3-carboxamide]",< 1000
6,"N#Cc1ccc(C#Cc2ccc3c(c2)c(C(N)=O)nn3CC(=O)N2[C@@H]3C[C@@H]3C[C@H]2C(=O)Nc2cccc(Br)n2)nc1 [Compound 60, 1-(2-((1R,3S,5R)-3-(6-bromopyridin-2-ylcarbamoyl)-2-azabicyclo[3.1.0]hexan-2-yl)-2-oxoethyl)-5-((5-cyanopyridin-2-yl)ethynyl)-1H-indazole-3-carboxamide]",< 1000
7,"NC(=O)c1nn(CC(=O)N2C[C@H](F)C[C@H]2C(=O)NCc2cccc(Cl)c2F)c2ccc(C#Cc3ncccn3)cc12 [Compound 20, 1-(2-((2S,4R)-2-(3-chloro-2-fluorobenzylcarbamoyl)-4-fluoropyrrolidin-1-yl)-2-oxoethyl)-5-(pyrimidin-2-ylethynyl)-1H-indazole-3-carboxamide]",< 1000
8,"NC(=O)c1nn(CC(=O)N2C[C@H](F)C[C@H]2C(=O)Nc2cncc(Br)n2)c2ccc(C#Cc3cnccn3)cc12 [Compound 89, 1-(2-((2S,4R)-2-(6-bromopyrazin-2-ylcarbamoyl)-4-fluoropyrrolidin-1-yl)-2-oxoethyl)-5-(pyrazin-2-ylethynyl)-1H-indazole-3-carboxamide]",< 1000
9,"NC(=O)c1nn(CC(=O)N2[C@@H]3C[C@@H]3C[C@H]2C(=O)Nc2cccc(Br)n2)c2ccc(C#Cc3ncc(C(F)(F)F)cn3)cc12 [Compound 61, 1-(2-((1R,3S,5R)-3-(6-bromopyridin-2-ylcarbamoyl)-2-azabicyclo[3.1.0]hexan-2-yl)-2-oxoethyl)-5-((5-(trifluoromethyl)pyrimidin-2-yl)ethynyl)-1H-indazole-3-carboxamide]",< 1000
10,"NC(=O)c1nn(CC(=O)N2C[C@H](F)C[C@H]2C(=O)Nc2cccc(Br)n2)c2ccc(C#Cc3ncccn3)cc12 [Compound 39, 1-(2-((2S,4R)-2-(6-bromopyridin-2-ylcarbamoyl)-4-fluoropyrrolidin-1-yl)-2-oxoethyl)-5-(pyrimidin-2-ylethynyl)-1H-indazole-3-carboxamide]",< 1000
11,"NC(=O)c1nn(CC(=O)N2C[C@H](F)C[C@H]2C(=O)NCc2cccc(Cl)c2F)c2ccc(C#Cc3ccccn3)cc12 [Compound 23, 1-(2-((2S,4R)-2-(3-chloro-2-fluorobenzylcarbamoyl)-4-fluoropyrrolidin-1-yl)-2-oxoethyl)-5-(pyridin-2-ylethynyl)-1H-indazole-3-carboxamide]",< 1000
12,"NC(=O)c1nn(CC(=O)N2C[C@H](F)C[C@H]2C(=O)Nc2cccc(Cl)n2)c2ccc(C#Cc3ncc(F)cn3)cc12 [Compound 88, 1-(2-((2S,4R)-2-(6-chloropyridin-2-ylcarbamoyl)-4-fluoropyrrolidin-1-yl)-2-oxoethyl)-5-((5-fluoropyrimidin-2-yl)ethynyl)-1H-indazole-3-carboxamide]",< 1000
13,"CC(=O)c1cn(CC(=O)N2[C@@H]3C[C@@H]3C[C@H]2C(=O)Nc2cccc(Br)n2)c2ccc(C#Cc3ncccn3)cc12 [Compound 21, (1R,3S,5R)-2-(2-(3-acetyl-5-(pyrimidin-2-ylethynyl)-1H-indol-1-yl)acetyl)-N-(6-bromopyridin-2-yl)-2-azabicyclo[3.1.0]hexane-3-carboxamide]",< 1000
14,"C#Cc1cccc(NC(=O)[C@@H]2C[C@@H](F)CN2C(=O)Cn2nc(C(N)=O)c3ccncc32)c1F [Compound 15, 1-(2-((2S,4R)-2-(3-ethynyl-2-fluorophenylcarbamoyl)-4-fluoropyrrolidin-1-yl)-2-oxoethyl)-1H-pyrazolo[3,4-c]pyridine-3-carboxamide]",< 1000
15,"C#Cc1ccc2c(C(C)=O)cn(CC(=O)N3C[C@H](F)C[C@H]3C(=O)NCc3cccc(Cl)c3F)c2c1 [Compound 1, (2S,4R)-1-(2-(3-acetyl-6-ethynyl-1H-indol-1-yl)acetyl)-N-(3-chloro-2-fluorobenzyl)-4-fluoropyrrolidine-2-carboxamide]",< 1000
16,"NC(=O)c1nn(CC(=O)N2C[C@H](F)C[C@H]2C(=O)Nc2cncc(-c3c(F)cccc3Cl)n2)c2ccc(C#Cc3ncc(F)cn3)cc12 [Compound 86, 1-(2-((2S,4R)-2-(6-(2-chloro-6-fluorophenyl)pyrazin-2-ylcarbamoyl)-4-fluoropyrrolidin-1-yl)-2-oxoethyl)-5-((5-fluoropyrimidin-2-yl)ethynyl)-1H-indazole-3-carboxamide]",< 1000
17,"NC(=O)c1nn(CC(=O)N2[C@@H]3C[C@@H]3C[C@H]2C(=O)Nc2cccc(OC(F)(F)F)c2F)c2ccc(C#Cc3ncccn3)cc12 [Compound 34, 1-(2-((1R,3S,5R)-3-(2-fluoro-3-(trifluoromethoxy)phenyl-carbamoyl)-2-azabicyclo[3.1.0]hexan-2-yl)-2-oxoethyl)-5-(pyrimidin-2-ylethynyl)-1H-indazole-3-carboxamide]",< 1000
18,"CC(=O)c1cn(CC(=O)N2C[C@H](F)C[C@H]2C(=O)NCc2cccc(Cl)c2F)c2cc(C#C[Si](C)(C)C)ccc12 [Compound 3, (2S,4R)-1-(2-(3-acetyl-6-((trimethylsilyl)ethynyl)-1H-indol-1-yl)acetyl)-N-(3-chloro-2-fluorobenzyl)-4-fluoropyrrolidine-2-carboxamide]",< 1000
19,"NC(=O)c1nn(CC(=O)N2C[C@H](F)C[C@H]2C(=O)Nc2cccc(Cl)n2)c2ccc(C#Cc3cccnn3)cc12 [Compound 75, 1-(2-((2S,4R)-2-(6-chloropyridin-2-ylcarbamoyl)-4-fluoropyrrolidin-1-yl)-2-oxoethyl)-5-(pyridazin-3-ylethynyl)-1H-indazole-3-carboxamide]",< 1000
